Assay type in all cases: in vivo
One experiment relates to Echinochloa crus-galli. As to the kind of experiment: Herbicidal screen, post-emergence spray of seedlings in pots: Barnyard grass. The note with it: Echinochloa crus-galli, post-emergence, 240 h, assessed 10 days after treatment, read-out: percentage increase in necrosis relative to the control. The procedure: (§1) Compounds were screened at four concentrations (100, 50, 25 and 12.5 g/ha) against four weed species (Stellaria media—Chickweed; Abutilon theophrasti—velvetleaf; Amaranthus retroflexus—common amaranthus; Echinochloa crus-galli—Barnyard grass) and maize as a crop species. Seed were sown in 12.5 cm diameter pots (20 per pot for the weed species and 5 for maize). Seedlings were sprayed with 2 ml of compound two weeks after sowing, with 2 ml water used as the control. Each treatment was replicated three times. Plants were maintained at 20° C. and assessed 10 days after treatment. The assessment was based on the % plant in each pot showing growth. The data is presented in Table 1 in which d represents no detected effect at this concentration; c represents a percentage increase in necrosis relative to the control of 0.1-50; b represents a percentage increase in necrosis of 50-80; and a represents a percentage increase in necrosis of 80-100.

The subject of the next experiment is Amaranthus retroflexus. As to the kind of experiment: Herbicidal screen, post-emergence spray of seedlings in pots: common amaranthus. The note with it: Amaranthus retroflexus, post-emergence, 240 h, assessed 10 days after treatment, read-out: percentage increase in necrosis relative to the control. The procedure: as §1
In the next experiment the test system is maize. In words: Herbicidal screen, post-emergence spray of seedlings in pots: crop species. The note with it: Zea mays, post-emergence, 240 h, assessed 10 days after treatment, read-out: percentage increase in necrosis relative to the control. The procedure:
as §1

The test system of another experiment is four weed species. As to the kind of experiment: Herbicidal screen, summary across the four weed species. Conditions: summary in words, 12.5-100 g/ha. The procedure: as §1
A further experiment has as its system Stellaria media. In words: Herbicidal screen, post-emergence spray of seedlings in pots: Chickweed. Conditions: Stellaria media, post-emergence, 240 h, assessed 10 days after treatment, read-out: percentage increase in necrosis relative to the control. The procedure:
as §1

A further experiment deals with Abutilon theophrasti. As to the kind of experiment: Herbicidal screen, post-emergence spray of seedlings in pots: velvetleaf. Conditions: Abutilon theophrasti, post-emergence, 240 h, assessed 10 days after treatment, read-out: percentage increase in necrosis relative to the control. The procedure: as §1

Molecules are shown by their SMILES.

For the compound `Cl.Cn1c(C(F)(F)F)cc(=O)n(-c2cc(C(=O)NS(=O)(=O)C3CCNCC3)c(Cl)cc2F)c1=O` [Example 2, 2-Chloro-4-fluoro-5-(3-methyl-2,6-dioxo-4-(trifluoromethyl)-3,6-dihydropyrimidin-1(2H)-yl)-N-(piperidin-4-ylsulfonyl)benzamide hydrochloride], in the experiment with Echinochloa crus-galli, the pest or weed control at 12.5 g/ha is 0.1 to 50%, the pest or weed control at 25 g/ha fell in the range of 50 to 80%, the pest or weed control at 50 g/ha lay in the range of 50 to 80% and the pest or weed control at 100 g/ha was in the range of 80 to 100%. Besides, in the experiment with Amaranthus retroflexus, the pest or weed control at 12.5 g/ha fell in the range of 80 to 100%, the pest or weed control at 25 g/ha fell in the range of 80 to 100%, the pest or weed control at 50 g/ha is 80 to 100% and the pest or weed control at 100 g/ha fell in the range of 80 to 100%. Moreover, in the experiment with maize, the plant injury at 12.5 g/ha is 0.1 to 50%, the plant injury at 25 g/ha is 0.1 to 50%, the plant injury at 50 g/ha was in the range of 50 to 80% and the plant injury at 100 g/ha was 50 to 80%. Besides, the “herbicidal activity against the weed species” value (shortened to “herbicidal activity”) in the experiment on four weed species is “good activity across several of the weed species”. In the experiment with Stellaria media, the pest or weed control at 12.5 g/ha fell in the range of 50 to 80%, the pest or weed control at 25 g/ha fell in the range of 50 to 80%, the pest or weed control at 50 g/ha lay within 50 to 80% and the pest or weed control at 100 g/ha was in the range of 80 to 100%. In addition, in the experiment with Abutilon theophrasti, the pest or weed control at 12.5 g/ha was 50 to 80%, the pest or weed control at 25 g/ha was 50 to 80%, the pest or weed control at 50 g/ha lay in the range of 50 to 80% and the pest or weed control at 100 g/ha was in the range of 80 to 100%.
For `CN1CCC(S(=O)(=O)NC(=O)c2cc(-n3c(=O)cc(C(F)(F)F)n(C)c3=O)c(F)cc2Cl)C1.Cl` (stereo not drawn) [Example 5, 2-Chloro-4-fluoro-5-(3-methyl-2,6-dioxo-4-(trifluoromethyl)-3,6-dihydropyrimidin-1(2H)-yl)-N-((1-methylpyrrolidin-3-yl)sulfonyl)benzamide hydrochloride], in the experiment on Echinochloa crus-galli, the pest or weed control at 12.5 g/ha lay within 0.1 to 50%, the pest or weed control at 25 g/ha lay in the range of 0.1 to 50%, the pest or weed control at 50 g/ha lay within 0.1 to 50% and the pest or weed control at 100 g/ha lay within 50 to 80%. Also, in the experiment with Amaranthus retroflexus, the pest or weed control at 12.5 g/ha lay within 80 to 100%, the pest or weed control at 25 g/ha lay within 80 to 100%, the pest or weed control at 50 g/ha was in the range of 80 to 100% and the pest or weed control at 100 g/ha lay in the range of 80 to 100%. For the same compound, in the experiment on maize, the plant injury at 12.5 g/ha fell in the range of 0.1 to 50%, the plant injury at 25 g/ha was in the range of 0.1 to 50%, the plant injury at 50 g/ha lay within 0.1 to 50% and the plant injury at 100 g/ha lay in the range of 0.1 to 50%. In addition, the “herbicidal activity” value in the experiment on four weed species is “good activity across several of the weed species”. Also, in the experiment with Stellaria media, the pest or weed control at 12.5 g/ha fell in the range of 0.1 to 50%, the pest or weed control at 25 g/ha lay within 0.1 to 50%, the pest or weed control at 50 g/ha was in the range of 50 to 80% and the pest or weed control at 100 g/ha lay within 50 to 80%. Also, in the experiment with Abutilon theophrasti, the pest or weed control at 12.5 g/ha is 0.1 to 50%, the pest or weed control at 25 g/ha is 50 to 80%, the pest or weed control at 50 g/ha was in the range of 80 to 100% and the pest or weed control at 100 g/ha was 80 to 100%.
For `Cn1c(C(F)(F)F)cc(=O)n(-c2cc(C(=O)NS(=O)(=O)C3(C)CC3)c(Cl)cc2F)c1=O` [Example 7, 2-Chloro-4-fluoro-5-(3-methyl-2,6-dioxo-4-(trifluoromethyl)-3,6-dihydropyrimidin-1(2H)-yl)-N-((1-methylcyclopropyl)sulfonyl)benzamide], in the experiment on Echinochloa crus-galli, the pest or weed control at 12.5 g/ha was in the range of 0.1 to 50%, the pest or weed control at 25 g/ha is 0.1 to 50%, the pest or weed control at 50 g/ha lay within 50 to 80% and the pest or weed control at 100 g/ha was in the range of 80 to 100%. Further, in the experiment on Amaranthus retroflexus, the pest or weed control at 12.5 g/ha lay in the range of 80 to 100%, the pest or weed control at 25 g/ha lay within 80 to 100%, the pest or weed control at 50 g/ha was in the range of 80 to 100% and the pest or weed control at 100 g/ha is 80 to 100%. For the same compound, in the experiment with maize, the plant injury at 12.5 g/ha lay within 0.1 to 50%, the plant injury at 25 g/ha lay within 0.1 to 50%, the plant injury at 50 g/ha was 0.1 to 50% and the plant injury at 100 g/ha is 50 to 80%. Further, the “herbicidal activity” value with four weed species is “good activity across several of the weed species”. In addition, in the experiment with Stellaria media, the pest or weed control at 12.5 g/ha fell in the range of 0.1 to 50%, the pest or weed control at 25 g/ha lay within 50 to 80%, the pest or weed control at 50 g/ha fell in the range of 50 to 80% and the pest or weed control at 100 g/ha is 80 to 100%. In the experiment with Abutilon theophrasti, the pest or weed control at 12.5 g/ha lay within 0.1 to 50%, the pest or weed control at 25 g/ha was in the range of 80 to 100%, the pest or weed control at 50 g/ha lay in the range of 80 to 100% and the pest or weed control at 100 g/ha was in the range of 80 to 100%.
Regarding `Cn1c(C(F)(F)F)cc(=O)n(-c2cc(C(=O)NS(=O)(=O)C3CCCC3)c(Cl)cc2F)c1=O` [Example 13, 2-Chloro-N-(cyclopentylsulfonyl)-4-fluoro-5-(3-methyl-2,6-dioxo-4-(trifluoromethyl)-3,6-dihydropyrimidin-1(2H)-yl)benzamide], in the experiment with Echinochloa crus-galli, the pest or weed control at 12.5 g/ha was 0.1 to 50%, the pest or weed control at 25 g/ha was 0.1 to 50%, the pest or weed control at 50 g/ha is 0.1 to 50% and the pest or weed control at 100 g/ha lay in the range of 0.1 to 50%. Also, in the experiment with Amaranthus retroflexus, the pest or weed control at 12.5 g/ha lay within 50 to 80%, the pest or weed control at 25 g/ha was in the range of 50 to 80%, the pest or weed control at 50 g/ha was 80 to 100% and the pest or weed control at 100 g/ha lay within 80 to 100%. For the same compound, in the experiment with maize, the plant injury at 12.5 g/ha fell in the range of 0.1 to 50%, the plant injury at 25 g/ha is 0.1 to 50%, the plant injury at 50 g/ha lay within 0.1 to 50% and the plant injury at 100 g/ha fell in the range of 0.1 to 50%. Also, in the experiment with four weed species, the “herbicidal activity” value is reported as “good activity across several of the weed species”. For the same compound, in the experiment on Stellaria media, the pest or weed control at 12.5 g/ha was 0.1 to 50%, the pest or weed control at 25 g/ha is 0.1 to 50%, the pest or weed control at 50 g/ha fell in the range of 0.1 to 50% and the pest or weed control at 100 g/ha lay within 0.1 to 50%. For the same compound, in the experiment with Abutilon theophrasti, the pest or weed control at 12.5 g/ha fell in the range of 0.1 to 50%, the pest or weed control at 25 g/ha lay within 50 to 80%, the pest or weed control at 50 g/ha lay in the range of 50 to 80% and the pest or weed control at 100 g/ha was in the range of 80 to 100%.

Values taken from patent US11634390B2, “Agricultural chemicals” (GLOBACHEM NV, priority 2016, dated 2023).
